Measured values reported in US12622896B2, “Antiviral compounds, compositions and methods of use” (THE UNIVERSITY OF BRITISH COLUMBIA, priority 2019, dated 2026).

Assays:
[1] = system: Maraviroc-resistant variant of HIV-1BaL; experiment: Anti-HIV assay against Maraviroc-resistant R5 strain; settings: Human immunodeficiency virus 1, read-out: EC50 against Maraviroc-resistant HIV-1 strain
Procedure: (§1) The anti-HIV activity of the compounds was measured by a human T-cell reporter assay based on CEM-GXR cells. These cells express GFP due to the activation of the tat-dependent promoter upon HIV-1 infection, and the level of infection was monitored using Flow cytometric analysis (Guavasoft 2.2™ software, Guava HT8, Millipore™). Antiviral activity was evaluated in an assay that measures the inhibition of HIV-1 spread in a co-culture of CEM-GXR cells containing one percent of HIV-1 infected (GFP positive) cells.
(§2) This Maraviroc-resistant variant derived from a R5 strain of HIV-1BaL contains five mutations within the envelope V3 loop: A19T, L20F, T22A, E25D, and I26V.

[2] = system: PI-resistant isolate (2948); experiment: Anti-HIV assay against PI-resistant isolate 2948; settings: Human immunodeficiency virus 1, read-out: EC50 against PI-resistant isolate 2948
Procedure: as §1

adenovirus genome = experiment: Adenovirus viral DNA replication by qPCR in A549 cells; assay type: cell-based; settings: 2.5 μM
Procedure: For adenovirus DNA analysis, cells were seeded on 6 cm plates at a density of 1×10^6 cells per plate. The next day, cells were infected with HAdV-C5 (MOI 100) for 1 h, inoculum was removed and replaced with medium containing DMSO or GPS491 (2.5 μM). At the indicated times post-infection, cells were collected and washed in 1×PBS. Cells were lysed using 200 uL lysis buffer (10 mM Tris-HCl [pH 8.0], 75 mM NaCl, 0.1% SDS, 0.5% NP-40, 0.5% Tween 20, 0.5 mg/ml proteinase K) at 56° C. for 4 to 5 h and the mixture was boiled for 15 min. Samples were centrifuged at 13000×g and supernatant was collected. All samples from a given experiment were processed at the same time. Adenovirus DNA levels were determined by qPCR as previously detailed in Grosso F. et al. (2017). J Virol. 91(3):e01623-16.
To assess whether the altered pattern of E1A expression could be attributed to changes in viral RNA accumulation or splicing, RT-PCR analysis was performed. The E1A transcript is the first viral RNA generated upon adenovirus infection and can be processed into three different mRNAs by alternative splicing; designated 13S, 12S, and 9S as shown in FIG. 20(A). The abundance of the different E1A RNA isoforms fluctuates over the course of adenovirus infection; 13S and 12S predominating at early times p.i., while 9S is the major E1A RNA at later times. […]

Huh7 cell line = settings: 24 hr, Alamar Blue
[3] = system: clinical isolate (11845 INI); experiment: Anti-HIV assay against INI-resistant clinical isolate 11845; settings: Human immunodeficiency virus 1, read-out: EC50 against 11845 clinical isolate
Procedure: as §1, §2

[4] = system: adenovirus hexon and E1A proteins; experiment: Adenovirus protein expression, Western blot and immunofluorescence in A549 cells; assay type: cell-based; settings: 2.5 μM, Western blot
Procedure: Protein lysates were analyzed by 10% Stain-Free gel (McDonald et al., 2008) and transferred to a polyvinylidene difluoride (PVDF) membranes using the Bio-Rad TurboBlot™ system according to the manufacturer's protocol. E1A and hexon blots were blocked at room temperature with 5% skim milk diluted in 0.05% Tween20 in ix PBS (PBS-T) for 1 h and then incubated with primary antibody overnight at 4° C. Following three PBS-T washes, the membrane is incubated with secondary antibody at room temperature for 1 h. For E1A analysis, blots were probed with polyclonal E1A primary antibody (Santa Cruz™, sc-430) and secondary anti-rabbit antibody conjugated to horseradish peroxidase (HRP, used a 1:5000 dilution in PBS-T). For hexon analysis, blots were probed with undiluted culture fluid from 2Hx-2 cells, which contain mouse anti-hexon antibodies, and secondary anti-mouse antibody conjugated to horseradish peroxidase (1:5000 dilution in PBS-T). For immunofluorescent detection of viral proteins, cells were fixed for 15 minutes with 4% paraformaldehyde, permeabilized with 0.1% Triton X-100 in PBS (PBT), then blocked with 5% bovine serum albumin (BSA) in PBT (BSA-PBT) at room temperature for 45 minutes. Cells were incubated with primary antibody at 37° C. for 45 minutes, washed three times with PBS, then incubated with secondary antibody for 45 minutes. […]

O=C(Nc1nc2ccc(C(F)(F)F)cc2s1)c1cnc(C(F)(F)F)s1 [12c, 2-(trifluoromethyl)-N-(6-(trifluoromethyl)benzo[d]thiazol-2-yl)thiazole-5-carboxamide]
EC50 [1]: 216 nM | EC50 [2]: 230 nM | viral DNA accumulation (adenovirus genome): levels comparable to that observed immediately after virus addition | toxicity against the Huh7 cell line (Huh7 cell line): minimal toxicity | EC50 [3]: 203 nM | expression of the E1A protein [4]: delayed | expression of the hexon protein [4]: inhibited
